# Columns and labels:
# Format in all cases: in vivo
# [1] = tested on: Alopecurus myosuroides (ALOMY); assay: Pre-emergence biological efficacy, glasshouse pot test; conditions: evaluated after 13 days, 100=total damage, 0=no damage, read-out: Percentage damage caused to weed species, pre-emergence, ALOMY; for pest or weed control at 1000 g/ha: 312 h, 1,000 g/ha
# Method in brief: (§1)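 Seeds sown in standard soil were sprayed one day after sowing with compound in acetone/water (50:50) plus 0.5% Tween 20 at 1000 or 250 g/ha. Pots stayed in the glasshouse at 24/16 °C day/night, 14 h light, 65% humidity. Damage was scored after 13 days (0 = none, 100 = total).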
# [2] = tested on: Amaranthus retroflexus (AMARE); assay: as above; conditions: evaluated after 13 days, 100=total damage, 0=no damage, read-out: Percentage damage caused to weed species, pre-emergence, AMARE; for pest or weed control at 1000 g/ha: 312 h, 1,000 g/ha
# Method in brief: as §1
# [3] = tested on: Echinochloa crus-galli (ECHCG); assay: as above; conditions: evaluated after 13 days, 100=total damage, 0=no damage, read-out: Percentage damage caused to weed species, pre-emergence, ECHCG; for pest or weed control at 1000 g/ha: 312 h, 1,000 g/ha
# Method in brief: as §1
# [4] = tested on: Ipomea hederaceae (IPOHE); assay: as above; conditions: Ipomoea hederacea, evaluated after 13 days, 100=total damage, 0=no damage, read-out: Percentage damage caused to weed species, pre-emergence, IPOHE; for pest or weed control at 1000 g/ha: 312 h, 1,000 g/ha
# Method in brief: as §1
# [5] = tested on: Setaria faberi (SETFA); assay: as above; conditions: evaluated after 13 days, 100=total damage, 0=no damage, read-out: Percentage damage caused to weed species, pre-emergence, SETFA; for pest or weed control at 1000 g/ha: 312 h, 1,000 g/ha
# Method in brief: as §1
# [6] = tested on: Solanum nigrum (SOLNI); assay: as above; conditions: evaluated after 13 days, 100=total damage, 0=no damage, read-out: Percentage damage caused to weed species, pre-emergence, SOLNI; for pest or weed control at 1000 g/ha: 312 h, 1,000 g/ha
# Method in brief: as §1
# [7] = tested on: Alopecurus myosuroides (ALOMY); assay: Post-emergence biological efficacy, glasshouse pot test; conditions: evaluated after 13 days, 100=total damage, 0=no damage, read-out: Percentage damage caused to weed species, post-emergence, ALOMY; for pest or weed control at 1000 g/ha: 312 h, 1,000 g/ha
# Method in brief: (§2)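 Scores on a 0 (undamaged) to 100 (dead) scale reflect injury 13 days post-treatment of 8-day-old potted plants sprayed at 1000 or 250 g/ha.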
# [8] = tested on: Amaranthus retroflexus (AMARE); assay: as above; conditions: evaluated after 13 days, 100=total damage, 0=no damage, read-out: Percentage damage caused to weed species, post-emergence, AMARE; for pest or weed control at 1000 g/ha: 312 h, 1,000 g/ha
# Method in brief: as §2
# [9] = tested on: Echinochloa crus-galli (ECHCG); assay: as above; conditions: evaluated after 13 days, 100=total damage, 0=no damage, read-out: Percentage damage caused to weed species, post-emergence, ECHCG; for pest or weed control at 1000 g/ha: 312 h, 1,000 g/ha
# Method in brief: as §2
# [10] = tested on: Ipomea hederaceae (IPOHE); assay: as above; conditions: Ipomoea hederacea, evaluated after 13 days, 100=total damage, 0=no damage, read-out: Percentage damage caused to weed species, post-emergence, IPOHE; for pest or weed control at 1000 g/ha: 312 h, 1,000 g/ha
# Method in brief: as §2
# [11] = tested on: Setaria faberi (SETFA); assay: as above; conditions: evaluated after 13 days, 100=total damage, 0=no damage, read-out: Percentage damage caused to weed species, post-emergence, SETFA; for pest or weed control at 1000 g/ha: 312 h, 1,000 g/ha
# Method in brief: as §2
# [12] = tested on: Solanum nigrum (SOLNI); assay: as above; conditions: evaluated after 13 days, 100=total damage, 0=no damage, read-out: Percentage damage caused to weed species, post-emergence, SOLNI; for pest or weed control at 1000 g/ha: 312 h, 1,000 g/ha
# Method in brief: as §2
Compound,pest or weed control at 1000 g/ha [1],pest or weed control at 1000 g/ha [2],pest or weed control at 1000 g/ha [3],pest or weed control at 1000 g/ha [4],pest or weed control at 1000 g/ha [5],pest or weed control at 1000 g/ha [6],pest or weed control at 1000 g/ha [7],pest or weed control at 1000 g/ha [8],pest or weed control at 1000 g/ha [9],pest or weed control at 1000 g/ha [10],pest or weed control at 1000 g/ha [11],pest or weed control at 1000 g/ha [12],also measured
"COC(=O)c1nc(Cl)c(F)c(NCc2ncccc2Cl)c1Br [Compound 32-29, 3-Bromo-6-chloro-4-[(3-chloro-pyridin-2-ylmethyl)-amino]-5-fluoro-pyridine-2-carboxylic acid methyl ester]",,,,,,,,,,,,,"pest or weed control at 250 g/ha ([1]; 312 h, 250 g/ha): 10%; pest or weed control at 250 g/ha ([2]; 312 h, 250 g/ha): 90%; pest or weed control at 250 g/ha ([3]; 312 h, 250 g/ha): 10%; pest or weed control at 250 g/ha ([4]; 312 h, 250 g/ha): 70%; pest or weed control at 250 g/ha ([5]; 312 h, 250 g/ha): 0%; pest or weed control at 250 g/ha ([6]; 312 h, 250 g/ha): 80%; pest or weed control at 250 g/ha ([7]; 312 h, 250 g/ha): 20%; pest or weed control at 250 g/ha ([8]; 312 h, 250 g/ha): 70%; pest or weed control at 250 g/ha ([9]; 312 h, 250 g/ha): 50%; pest or weed control at 250 g/ha ([10]; 312 h, 250 g/ha): 60%; pest or weed control at 250 g/ha ([11]; 312 h, 250 g/ha): 60%; pest or weed control at 250 g/ha ([12]; 312 h, 250 g/ha): 80%"
"C=Cc1c(C(=O)OC)nc(Cl)c(Cl)c1NCc1ncccc1Cl [Compound 32-39, 4-[(3-Chloro-pyridin-2-ylmethyl)-amino]-5,6-dichloro-3-ethenyl-pyridine-2-carboxylic acid methyl ester]",0%,100%,0%,50%,0%,60%,10%,100%,20%,40%,50%,90%,
"COC(=O)c1nc(Cl)c(Cl)c(NCc2ncccc2Cl)c1Br [Compound 32-41, 3-Bromo-4-[(3-chloro-pyridin-2-ylmethyl)-amino]-5,6-dichloro-pyridine-2-carboxylic acid methyl ester]",0%,90%,0%,80%,0%,80%,20%,90%,20%,70%,60%,90%,
"COC(=O)c1nc(Cl)cc(NCc2ncccc2C)c1Cl [Compound 33-2, 3,6-Dichloro-4-[(3-methyl-pyridin-2-ylmethyl)-amino] pyridine-2-carboxylic acid methyl ester]",60%,100%,50%,100%,80%,100%,60%,100%,60%,80%,70%,100%,
"C=Cc1c(NCc2ncccc2C)cc(Cl)nc1C(=O)OC [Compound 33-12, 6-Chloro-3-ethenyl-4-[(3-methyl-pyridin-2-ylmethyl)-amino]-pyridine-2-carboxylic acid methyl ester]",70%,100%,80%,100%,80%,100%,80%,100%,80%,70%,90%,90%,
"COC(=O)c1nc(Cl)cc(N(CCO)Cc2ccco2)c1Cl [Compound 66-2, 3,6-Dichloro-4-[N-(furan-2-ylmethyl)-N-(2-hydroxyethyl)-amino]-pyridine-2-carboxylic acid methyl ester]",80%,100%,50%,100%,70%,100%,20%,100%,20%,60%,0%,80%,

# From patent US20120100990A1, “4 -AMINOPICOLINATES AND THEIR USE AS HERBICIDES” (SYNGENTA CROP PROTECTION LLC, priority 2009, published 2012)
